Columns and labels:
[1] = Clearance of 125I-sCT from the intramuscular or subcutaneous site of injection; assay type: in vivo, Sprague-Dawley rats; settings: free drug, FIG. 2/3
Description: The rate of clearance of sCT from a given liposome furmulation was determined by monitoring the clearance of ^125 I-sCT from the intramuscular site of injection. Salmon calcitonin was spiked with ^1251 -sCT and encapsulated in MLVs as described in Example I in such a way that after the removal of non-liposome associated drug, the injection sample contained about 10,000 cpm of ^125 I per injection.
Male Sprague-Dawley rats weighing 95 to 100 g were lightly anesthetized with ether, and 20 ul or 100 ul of the ^125 I-sCT liposome samples were injected either in the lower part of the forelimbs or the hindlimbs respectively. Sixteen to twenty rats were used in each experiment. […] At each time point, two rats were anesthetized for blood sampling (two ml blood were drawn and counted for ^125 I radioactivity). […] The limbs were inserted into tubes and then counted for remaining radioactivity in a gamma counter. The eight to ten time points shown in FIG. 2 were selected so that the half-life of clearance from the IM site could be determined by a semi-log plot of the radioactivity remaining versus time after injection as shown in FIG. 3. […]
The urine and feces from the two rats kept in metabolic cages throughout the experiment were collected and counted for radioactivity. […]

[2] = Plasma levels of immunoreactive sCT (radio-immunoassay) after IM injection; assay type: in vivo, rats; settings: 1 ug
Description: Rats weighing 95 to 105 gm were injected intramuscularly in the forelimbs with sCT or sCT-MLVs. At each time point, four rats were bled by cardiac puncture and the blood collected in pre-chilled EDTA containing tubes. The plasma was collected after centrifugation at 4° C. and quickly frozen. The frozen samples were sent to Hazleton Laboratories for sCT radio-immunoassay (RIA). […] Thus, sCT-MLVs injected intramuscularly can achieve prolonged delivery to the systemic circulation.

[3] = Apparent first order absorption rate constant of gentamicin from urinary excretion after IM injection; settings: lipid dose 0 umol/inj.
Description: The gentamicin concentration in the liposomes formulation was determined by the EMIT assay (Syva, Palo Alto, CA) after lysis in triton X-100.
Therefore, the apparent absorption rate constant, Ka, was estimated with the urinary excretion.
One group of four rats was immediately placed in metabolic cages (one rat per cage) and urine was collected at 24 hour intervals for the duration of the experiment. Cages were rinsed with distilled water after each collection and the volume of the pooled urine and rinses were recorded. An aliquot of each sample was frozen until assay.

clearance half-life from the site of IM injection [1] | plasma immunoreactive sCT in circulation [2] | Compound | Rate Const. Ka (apparent first order absorption rate constant) [3] [h⁻¹]
a few minutes | rapidly disappeared from circulation | CC(C)C[C@H](NC(=O)[C@H](CCCCN)NC(=O)CNC(=O)[C@H](CC(C)C)NC(=O)[C@@H](NC(=O)[C@@H]1CSSC[C@H](N)C(=O)N[C@@H](CO)C(=O)N[C@@H](CC(N)=O)C(=O)N[C@@H](CC(C)C)C(=O)N[C@@H](CO)C(=O)N[C@@H]([C@@H](C)O)C(=O)N1)C(C)C)C(=O)N[C@@H](CO)C(=O)N[C@@H](CCC(N)=O)C(=O)N[C@@H](CCC(=O)O)C(=O)N[C@@H](CC(C)C)C(=O)N[C@@H](Cc1c[nH]cn1)C(=O)N[C@@H](CCCCN)C(=O)N[C@@H](CC(C)C)C(=O)N[C@@H](CCC(N)=O)C(=O)N[C@H](C(=O)N[C@@H](Cc1ccc(O)cc1)C(=O)N1CCC[C@H]1C(=O)N[C@@H](CCCNC(=N)N)C(=O)N[C@H](C(=O)N[C@@H](CC(N)=O)C(=O)N[C@H](C(=O)NCC(=O)N[C@@H](CO)C(=O)NCC(=O)N[C@H](C(=O)N1CCC[C@H]1C(N)=O)[C@@H](C)O)[C@@H](C)O)[C@@H](C)O)[C@@H](C)O [F-sCT, Salmon calcitonin] | –
– | – | gentamicin [Gentamicin solution] | 5.3
